Test results from patent US20260272879A1, “ANION-BINDING AROMATIC OLIGOAMIDE MACROCYCLES AND METHODS OF MAKING AND USING SAME” (The Research Foundation for The State University of New York, priority 2023, published 2026).
Where two headings read alike, the source gives them in different places.

Experiments:
[1] = Isothermal titration calorimetry (ITC), ClO4^−; assay type: binding; settings: 25° C.
Description: (§1) Isothermal titration calorimetry (ITC) experiments were performed using a MicroCal VP-ITC. ITC experiments were conducted by adding ~1.5 mL of a solution containing c5a to the sample cell. Followed by titrating 10 μL aliquots of a solution containing the corresponding TBA·X salt (~10-14× concentration of c5a solution) from the syringe into the sample cell. Heats of dilution were obtained by titrating 10 μL aliquots of the TBA·X solution from the syringe into the sample cell in the absence of c5a. The heats of dilution were subtracted from the raw data. ITC data processing and curve fitting was done using the Origin program (MicroCal).
(§2) Two-step competition ITC experiments for determining the Ka of c5a and iodide. In CH3CN:CHCl3 (5:95, v/v), the binding affinity of c5a for I^− was too high to be determined with direct NMR or ITC titration. Instead, two-step competition ITC experiments with Cl^− as the competitor were performed.

[2] = 1H NMR titration, binding of IO4^−; settings: DMSO-d6:CDCl3 (15:85, v/v), 25° C., NMR titration (protons a and b)
Description: (§3) ^1H NMR titration methods. Titrations of c5a and c5b with anions as their tetra-n-butylammonium (TBA), tetra-ethylammonium (TEA) and tetra-methylammonium (TMA) salts were carried out by ^1H NMR (400 MHz) at 25° C. 0.4 mL of corresponding hosts solutions were prepared in the rubber-cap NMR tubes. Aliquots of concentrated guest solution containing hosts were added into the NMR tubes using 20 microliter pipette. An initial ^1H NMR spectrum was collected and additional spectra were obtained after each injection of guest solution. All titration ^1H NMR spectra were stacked together and the chemical shifts of the internal aromatic CH proton were then fitted to 1:1 binding model using BindFit v0.5 (http://app.supramolecular.org/bindfit/) to evaluate binding constants to anions.

[3] = Carrier vs channel chloride transport with DPPC LUVs; assay type: biochemical; settings: HPTS
Description: Differentiation of carrier vs channel chloride transport with DPPC LUVs. An aliquot (20 μL) DPPC LUVs (intravesicular components: 10 mM HEPES, 100 mM NaCl, pH 7.0) was added to 1.98 mL of a buffer comprised of 10 mM HEPES, 100 mM NaCl, pH 7, followed by incubating at 45° C. for 3 min. An aliquot (20 μL) of c5a (0.2 mM) in DMF was added to the LUVs, with the final concentration of c5a being […], and the solution was incubated for an additional 3 min at 45° C. LUVs with c5a were incubated either at 45° C. or 25° C. for 3 minutes.

[4] = 1H NMR titration, binding of ClO4^−; settings: DMSO-d6:CDCl3 (15:85, v/v), 25° C.
Description: as §3

[5] = Isothermal titration calorimetry (ITC), BF4^−; assay type: binding; settings: DMSO:CHCl3 (5:95, v/v), 25° C.
Description: as §1, §2

[6] = tested on: Human bronchial epithelial (HBE) cells from cystic fibrosis (CF) patients; experiment: Airway surface liquid (ASL) thickness, confocal imaging; assay type: cell-based; settings: CF HBE cultures, c5a 5 μM with 1% DMSO in PBS apically daily for five days
Description: Primary Cell Culture. Human bronchial epithelial (HBE) cells from cystic fibrosis (CF) patients (DF508 homozygous) were obtained from the UNC-CF Tissue Culture Core under the auspices of protocols approved by the UNC Institutional Review Board using previously reported methodologies. Cultures on 12-mm permeable supports (Transwell-Clear; Costar) were maintained in a well-humidified (>95%) incubator (5% CO2) at 37° C. during cellular differentiation (3-4 weeks after plating).
Confocal imaging studies. CF HBE cultures were treated with apically with c5a (5 μM in 1% DMSO) or vehicle control (1% DMSO in PBS) daily for 5 days prior to imaging. The height of the luminal airway surface layer (ASL) was visualized by adding a cell-impermeant dye (Texas Red-dextran 70 kDa; 0.1%) to the c5a and vehicle control on the evening prior to imaging. […] The thickness of the ASL layer in c5a and control cultures were measured by high-speed X-Z confocal scanning. […]
Human bronchial epithelial (HBE) cells isolated from CF patients were cultured at the time of lung transplant as a model system for diseased airways. […] The thickness of the ASL layer on the surface of the HBE cell layer can be conveniently measured by determining the thickness of the fluorescently-labeled fluid layer on the airway surface using X-Z confocal scanning microscopy (FIG. 117b). […]

[7] = EC50 of halide transport, HPTS assay; assay type: biochemical; settings: POPC LUVs, entrapped HPTS
Description: The time course of the emission intensity of intravesicular HPTS, It, was obtained first by ratiometric analysis (Rt=It,450/It,405), followed by normalization according to equation (S1),
where R0=Rt at t=100 s, before the addition of c5a; R∞=Rt at t=350 s upon the addition of Triton X-100. Normalized intensity ratio at 300 s just before addition of Triton X-100 was defined as the transmembrane activity (Y) which was analyzed with the Hill equation (S2) to give effective concentration EC50 and the Hill coefficient n, (S2)
where Y0 is Y in absence of carrier, […], and c is the carrier concentration in a cuvette.

For `CCCCCCCCOCC(C)(C)C(=O)Nc1ccc2cc1C(=O)Nc1ccc(NC(=O)C(C)(C)COCCCCCCCC)c(c1)C(=O)Nc1ccc(NC(=O)C(C)(C)COCCCCCCCC)c(c1)C(=O)Nc1ccc(NC(=O)C(C)(C)COCCCCCCCC)c(c1)C(=O)Nc1ccc(NC(=O)C(C)(C)COCCCCCCCC)c(c1)C(=O)N2` [c5a], the “Association constant Ka, 1:1 complex with ClO4^−” value ([1]; DMSO-d6:CDCl3 (15:85, v/v) column, ITC measurements (footnote d)) was “(1.90 ± 0.02) × 10^4 ^d M^−1”, the “Association constant Ka, 1:1 complex with ClO4^−” value ([1]; DMSO:CHCl3 (5:95, v/v), ITC) was “(4.50 ± 0.50) × 10^5 M^−1” and the “Association constant Ka, 1:1 complex with IO4^−” value [2] was “(1.18 ± 0.08) × 10^4 M^−1”. For the same compound, the “chloride transport into DPPC LUVs” value ([3]; 25° C. (gel phase), c5a pre-incubated at 45° C.) was “completely prohibited”, the “chloride transport into DPPC LUVs” value ([3]; 45° C. (fluid phase)) was “enhanced halide transport” and the “Association constant Ka, 1:1 complex with ClO4^−” value ([4]; single NMR titration (protons a and b)) was “(5.74 ± 0.51) × 10^4 M^−1”. The “Association constant Ka, 1:1 complex with ClO4^−” value ([4]; triplicate NMR titrations (footnote c)) was “(9.60 ± 0.76) × 10^4 ^c M^−1”, the “Association constant Ka, 1:1 complex with BF4^−” value [5] was “(8.70 ± 0.40) × 10^5 M^−1” and the “increase of ASL thickness vs control CF” value [6] was “more than 50%”. For the same compound, the ASL thickness ([6]; X-Z confocal) was 7.8±1.7 μm, the EC50 ([7]; c5a 0.05 to 10 μM, base pulse, read-out: EC50 for the transport of Br^−) was 4.11 µM and the EC50 ([7]; c5a 0.05 to 10 μM, base pulse, read-out: EC50 for the transport of Cl^−) was 0.31 µM. For the same compound, the EC50 ([7]; c5a up to 10 μM, too large to be measured, read-out: EC50 for the transport of I^−) was > 10 µM.
